{
  "source": "paper PMC6704710",
  "about": "“Preclinical evaluation of 3D185, a novel potent inhibitor of FGFR1/2/3 and CSF-1R, in FGFR-dependent and macrophage-dominant cancer models” (Journal of Experimental & Clinical Cancer Research : CR, 2019)",
  "assay_in_all_cases": "Eurofins kinase panel",
  "assay_type_in_all_cases": "biochemical",
  "settings_in_all_cases": "read-out: Inhibition rate (%)",
  "key": {"[1]": {"biological_target": "T1, CaMKK1(h) (Homo sapiens, UniProt Q8N5S9)", "T1 construct": "purchased Eurofins (KinaseProfiler)", "T1 sequence (Q8N5S9 whole entry)": "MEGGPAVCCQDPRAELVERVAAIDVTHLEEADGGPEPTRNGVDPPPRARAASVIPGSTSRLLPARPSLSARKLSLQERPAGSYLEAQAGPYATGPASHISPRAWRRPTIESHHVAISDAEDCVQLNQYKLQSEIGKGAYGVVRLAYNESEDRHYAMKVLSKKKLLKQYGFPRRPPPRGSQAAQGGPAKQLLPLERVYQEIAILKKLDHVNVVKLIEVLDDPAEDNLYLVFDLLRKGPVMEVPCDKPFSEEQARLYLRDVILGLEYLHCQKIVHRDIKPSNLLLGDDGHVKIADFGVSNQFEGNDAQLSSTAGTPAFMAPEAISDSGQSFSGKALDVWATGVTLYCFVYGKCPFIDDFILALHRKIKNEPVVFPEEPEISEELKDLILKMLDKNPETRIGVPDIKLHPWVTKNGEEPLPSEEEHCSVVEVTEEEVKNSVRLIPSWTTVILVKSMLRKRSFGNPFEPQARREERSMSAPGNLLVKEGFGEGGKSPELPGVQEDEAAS"}, "[2]": {"biological_target": "T2, EphA3(h) (Homo sapiens, UniProt P29320)", "T2 construct": "purchased Eurofins (KinaseProfiler)", "T2 sequence (P29320 21-983)": "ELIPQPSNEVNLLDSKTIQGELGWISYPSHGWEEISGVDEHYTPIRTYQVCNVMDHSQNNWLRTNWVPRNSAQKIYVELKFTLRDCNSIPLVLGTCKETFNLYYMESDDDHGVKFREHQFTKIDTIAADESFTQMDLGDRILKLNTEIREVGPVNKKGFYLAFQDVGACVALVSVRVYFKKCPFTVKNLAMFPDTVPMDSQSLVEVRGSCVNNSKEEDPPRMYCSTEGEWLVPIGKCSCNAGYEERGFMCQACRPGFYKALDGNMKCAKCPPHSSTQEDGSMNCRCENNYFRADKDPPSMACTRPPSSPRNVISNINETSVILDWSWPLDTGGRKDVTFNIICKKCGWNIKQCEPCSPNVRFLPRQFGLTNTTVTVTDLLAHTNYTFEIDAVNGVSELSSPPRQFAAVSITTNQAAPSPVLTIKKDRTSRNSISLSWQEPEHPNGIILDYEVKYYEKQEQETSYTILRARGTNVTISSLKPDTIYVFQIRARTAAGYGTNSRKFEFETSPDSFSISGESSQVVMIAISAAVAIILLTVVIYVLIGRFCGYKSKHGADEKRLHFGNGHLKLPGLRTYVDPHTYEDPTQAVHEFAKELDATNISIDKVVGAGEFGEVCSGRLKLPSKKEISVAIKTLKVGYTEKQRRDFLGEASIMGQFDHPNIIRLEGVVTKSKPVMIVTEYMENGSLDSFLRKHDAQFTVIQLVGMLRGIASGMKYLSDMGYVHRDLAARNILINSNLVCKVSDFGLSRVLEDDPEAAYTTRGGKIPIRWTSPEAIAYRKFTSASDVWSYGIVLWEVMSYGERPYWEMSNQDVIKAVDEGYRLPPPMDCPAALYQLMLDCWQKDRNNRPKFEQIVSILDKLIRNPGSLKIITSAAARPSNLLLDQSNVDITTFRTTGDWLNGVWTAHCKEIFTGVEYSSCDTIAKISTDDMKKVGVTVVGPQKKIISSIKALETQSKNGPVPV"}, "[3]": {"biological_target": "T3, IRAK1(h) (Homo sapiens, UniProt P51617)", "T3 construct": "purchased Eurofins (KinaseProfiler)", "T3 sequence (P51617 whole entry)": "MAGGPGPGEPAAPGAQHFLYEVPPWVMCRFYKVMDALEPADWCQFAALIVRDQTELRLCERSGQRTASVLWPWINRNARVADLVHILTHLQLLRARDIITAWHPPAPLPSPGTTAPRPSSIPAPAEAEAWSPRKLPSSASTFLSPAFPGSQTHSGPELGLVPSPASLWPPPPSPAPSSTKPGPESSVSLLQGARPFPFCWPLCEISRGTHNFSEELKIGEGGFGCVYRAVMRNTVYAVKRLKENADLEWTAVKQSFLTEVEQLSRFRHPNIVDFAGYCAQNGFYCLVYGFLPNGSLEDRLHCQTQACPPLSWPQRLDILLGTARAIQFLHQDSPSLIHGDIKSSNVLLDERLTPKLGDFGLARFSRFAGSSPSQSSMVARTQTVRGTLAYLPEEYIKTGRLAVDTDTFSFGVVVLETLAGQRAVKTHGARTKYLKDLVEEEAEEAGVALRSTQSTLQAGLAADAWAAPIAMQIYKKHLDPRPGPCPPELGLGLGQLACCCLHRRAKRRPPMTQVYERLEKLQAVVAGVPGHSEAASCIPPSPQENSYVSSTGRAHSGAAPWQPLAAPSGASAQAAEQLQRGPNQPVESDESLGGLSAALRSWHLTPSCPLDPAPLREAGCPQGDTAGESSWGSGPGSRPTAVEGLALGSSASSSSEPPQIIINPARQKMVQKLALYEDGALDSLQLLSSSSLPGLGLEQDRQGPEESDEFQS"}, "[4]": {"biological_target": "T4, SAPK4(h) (Homo sapiens, UniProt O15264)", "T4 construct": "purchased Eurofins (KinaseProfiler)", "T4 sequence (O15264 1-365)": "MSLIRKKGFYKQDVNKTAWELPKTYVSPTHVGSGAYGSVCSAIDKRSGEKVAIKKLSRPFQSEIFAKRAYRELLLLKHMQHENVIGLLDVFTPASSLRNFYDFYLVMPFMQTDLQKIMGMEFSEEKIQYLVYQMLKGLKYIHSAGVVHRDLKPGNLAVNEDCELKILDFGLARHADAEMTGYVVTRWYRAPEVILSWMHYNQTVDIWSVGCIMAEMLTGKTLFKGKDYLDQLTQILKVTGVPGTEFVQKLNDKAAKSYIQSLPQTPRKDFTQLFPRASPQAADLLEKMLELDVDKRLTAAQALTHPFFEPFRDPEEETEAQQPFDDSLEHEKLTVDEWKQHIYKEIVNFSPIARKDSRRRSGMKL"}, "[5]": {"biological_target": "T5, TBK1(h) (Homo sapiens, UniProt Q9UHD2)", "T5 construct": "purchased Eurofins (KinaseProfiler)", "T5 sequence (Q9UHD2 1-729)": "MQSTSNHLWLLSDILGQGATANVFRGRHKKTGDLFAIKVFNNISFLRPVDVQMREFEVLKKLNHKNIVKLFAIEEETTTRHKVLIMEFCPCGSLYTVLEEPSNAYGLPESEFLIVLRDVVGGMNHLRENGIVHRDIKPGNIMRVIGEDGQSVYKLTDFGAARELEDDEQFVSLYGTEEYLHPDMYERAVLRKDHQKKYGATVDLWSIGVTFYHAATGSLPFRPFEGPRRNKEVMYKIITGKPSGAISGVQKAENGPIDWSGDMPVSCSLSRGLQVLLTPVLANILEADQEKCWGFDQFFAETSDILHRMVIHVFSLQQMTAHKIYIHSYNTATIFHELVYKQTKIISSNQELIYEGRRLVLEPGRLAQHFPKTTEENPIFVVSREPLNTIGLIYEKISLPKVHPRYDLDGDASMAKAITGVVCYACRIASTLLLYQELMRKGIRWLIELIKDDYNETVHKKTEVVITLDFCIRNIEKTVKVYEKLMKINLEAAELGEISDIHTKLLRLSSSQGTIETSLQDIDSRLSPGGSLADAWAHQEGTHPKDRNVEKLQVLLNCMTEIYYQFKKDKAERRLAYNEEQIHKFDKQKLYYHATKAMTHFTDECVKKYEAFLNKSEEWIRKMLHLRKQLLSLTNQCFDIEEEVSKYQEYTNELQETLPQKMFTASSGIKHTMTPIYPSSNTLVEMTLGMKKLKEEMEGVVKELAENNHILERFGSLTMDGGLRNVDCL"}, "[6]": {"biological_target": "T6, TSSK2(h) (Homo sapiens, UniProt Q96PF2)", "T6 construct": "purchased Eurofins (KinaseProfiler)", "T6 sequence (Q96PF2 1-358)": "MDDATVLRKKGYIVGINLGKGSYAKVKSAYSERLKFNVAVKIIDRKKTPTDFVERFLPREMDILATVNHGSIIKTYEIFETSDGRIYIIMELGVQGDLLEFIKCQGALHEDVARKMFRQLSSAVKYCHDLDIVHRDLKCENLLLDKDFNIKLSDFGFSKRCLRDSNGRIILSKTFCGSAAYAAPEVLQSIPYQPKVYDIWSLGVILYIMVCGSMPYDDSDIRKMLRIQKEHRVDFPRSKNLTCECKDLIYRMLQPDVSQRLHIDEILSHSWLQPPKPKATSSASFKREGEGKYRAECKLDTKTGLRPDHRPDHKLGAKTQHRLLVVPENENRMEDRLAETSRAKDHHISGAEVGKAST"}},
  "data": [
    {"smiles": "COc1cc(OC)c(Cl)c(-c2ccc3c(NC(=O)c4ccc(N5CCNC(C)(C)C5)cc4)n[nH]c3n2)c1Cl", "note": "[3D185]", "values": [
      {"measurement": "inhibition at 0.01 µM", "setting": "[1]; 10 nM", "result": -1, "unit": "%"},
      {"measurement": "inhibition at 0.1 µM", "setting": "[1]; 100 nM", "result": 5, "unit": "%"},
      {"measurement": "inhibition at 1 µM", "setting": "[1]; 1000 nM", "result": 35, "unit": "%"},
      {"measurement": "inhibition at 0.01 µM", "setting": "[2]; 10 nM", "result": 2, "unit": "%"},
      {"measurement": "inhibition at 0.1 µM", "setting": "[2]; 100 nM", "result": 14, "unit": "%"},
      {"measurement": "inhibition at 1 µM", "setting": "[2]; 1000 nM", "result": 30, "unit": "%"},
      {"measurement": "inhibition at 0.01 µM", "setting": "[3]; 10 nM", "result": 4, "unit": "%"},
      {"measurement": "inhibition at 0.1 µM", "setting": "[3]; 100 nM", "result": 0, "unit": "%"},
      {"measurement": "inhibition at 1 µM", "setting": "[3]; 1000 nM", "result": 19, "unit": "%"},
      {"measurement": "inhibition at 0.01 µM", "setting": "[4]; 10 nM", "result": -12, "unit": "%"},
      {"measurement": "inhibition at 0.1 µM", "setting": "[4]; 100 nM", "result": -8, "unit": "%"},
      {"measurement": "inhibition at 1 µM", "setting": "[4]; 1000 nM", "result": -11, "unit": "%"},
      {"measurement": "inhibition at 0.01 µM", "setting": "[5]; 10 nM", "result": -6, "unit": "%"},
      {"measurement": "inhibition at 0.1 µM", "setting": "[5]; 100 nM", "result": -2, "unit": "%"},
      {"measurement": "inhibition at 1 µM", "setting": "[5]; 1000 nM", "result": -1, "unit": "%"},
      {"measurement": "inhibition at 0.01 µM", "setting": "[6]; 10 nM", "result": 6, "unit": "%"},
      {"measurement": "inhibition at 0.1 µM", "setting": "[6]; 100 nM", "result": 5, "unit": "%"},
      {"measurement": "inhibition at 1 µM", "setting": "[6]; 1000 nM", "result": -4, "unit": "%"}
    ]}
  ]
}
